The text below walks through data of US5380921A, “Aminophosponic acid derivative” (Banyu Pharmaceutical Co., Ltd., priority 1993, dated 1995).

Assay [1] deals with Isolated Guinea Pig Bronchial Smooth Muscles. The assay can be described thus: Effect on Big Endothelin-1-induced Contraction in Isolated Guinea Pig Bronchial Smooth Muscles. As for the experimental part: Bronchia (outer diameter approximately 2 mm) were isolated from the lung of a guinea pig, and the connective tissue, lung parenchymal tissue, etc. were peeled off, and then a ring preparation (4 mm in length) was prepared. These samples were placed in a 5 ml Magnus' tube filled with Krebs-Henseleit solution saturated with a gas mixture of 95% O2 and 5% CO2, and a change in tension was isometrically measured and recorded.
The influence of a representative compound of the present invention (Compound of Example 2, Isomer B) to the increase in the tension produced by 100 nM of big endothelin-1 was examined. The test compound was added into the Magnus' tube 40 minutes prior to the addition of big endothelin-1.
A 100% increase in the tension was defined as that in the case of no addition of the test compound (control) at 2 hours after addition of big endothelin-1, and the comparison with the increase in the tension in the cases where the test compound was added is shown in Table 3.

Assay [2] concerns the target T1, endothelin-converting enzyme (ECE) (Bos taurus, UniProt P42891).
T1 construct: ECE was prepared according to the method already published by Yano, et.al; endogenous in cells
T1 sequence (P42891 1-754): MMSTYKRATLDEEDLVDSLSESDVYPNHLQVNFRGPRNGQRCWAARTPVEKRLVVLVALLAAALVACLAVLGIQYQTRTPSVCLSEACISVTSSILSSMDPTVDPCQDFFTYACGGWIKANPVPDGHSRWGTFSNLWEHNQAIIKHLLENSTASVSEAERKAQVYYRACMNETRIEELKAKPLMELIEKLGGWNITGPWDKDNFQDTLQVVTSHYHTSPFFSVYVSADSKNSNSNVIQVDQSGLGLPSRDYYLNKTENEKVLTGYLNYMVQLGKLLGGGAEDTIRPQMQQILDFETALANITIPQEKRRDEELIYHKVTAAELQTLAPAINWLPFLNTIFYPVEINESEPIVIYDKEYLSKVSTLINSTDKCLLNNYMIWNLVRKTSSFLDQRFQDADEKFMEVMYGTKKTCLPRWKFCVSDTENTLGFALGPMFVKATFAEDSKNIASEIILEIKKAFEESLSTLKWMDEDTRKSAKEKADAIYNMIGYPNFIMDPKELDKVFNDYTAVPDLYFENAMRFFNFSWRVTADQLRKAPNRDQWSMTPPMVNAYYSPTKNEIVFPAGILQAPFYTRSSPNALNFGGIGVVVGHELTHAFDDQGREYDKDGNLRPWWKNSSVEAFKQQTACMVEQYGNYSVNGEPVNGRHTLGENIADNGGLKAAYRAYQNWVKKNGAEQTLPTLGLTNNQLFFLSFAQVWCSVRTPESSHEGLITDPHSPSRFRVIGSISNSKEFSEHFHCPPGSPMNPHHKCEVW
The assay is described as follows: ECE Activity Inhibition Test (endothelin-1 produced from big endothelin-1, RIA). Format: biochemical. The following applies: 10 μM test compound; 1 μM big endothelin-1; pH 7.2, 37° C., 90 minutes. As for the experimental part:
ECE was prepared according to the method already published by Yano, et.al. (Biochem. Biophys. Res. Commun., Vol. 171, p.1192-1198, 1990), and 11 μg of ECE and 1 μM of big endothelin-1 were reacted with a 0.5M Tris-HCl buffer solution (pH 7.2) at 37° C. for 90 minutes in the presence or absence of a test compound, after which the amount of endothelin-1 produced thereby was determined by the RIA method, and the ECE inhibition activity of the test compound was evaluated.

Assay [3] deals with Guinea Pigs. The assay can be described thus: Effect on Big Endothelin-1-induced Increase in Airway Resistance in Guinea Pigs. Format: in vivo, guinea pig. How it is done:
Guinea pigs were first anesthetized with urethane, and then the necks were subjected to median incision, a tracheal cannula was inserted in the trachea. Spontaneous respiration was interrupted with succinylcholine (5 mg/kg, hypodermic injection), and then an artificial respirator was used to effect artificial ventilation (10 ml/air/kg, […]). The airway pressure was then measured and recorded using the Konzett and Rossler method (Arch. Exp. Path. Pharmacol., Vol. 135, p.71-74, 1940), via an airway contraction transducer from the tracheal cannula.
Examined was the influence of a representative compound of the present invention (Compound of Example 1, Isomer B) to the increase in airway pressure produced by the administration of 5 nmol/kg of big endothelin-1 through a polyethylene tube inserted into the common carotid vein. The test compound was injected into the common carotid vein 5 minutes before the administration of big endothelin-1. Also, upon completion of the experiment, the change in airway pressure obtained by blockage of the trachea was defined as a 100% increase in airway pressure, and the measured increases in airway pressure were expressed as percentages of this value. […]

The test system of assay [4] is Isolated Pig Coronary Arteries. The assay can be described thus: Effect on endothelin-1-induced increase in tension in isolated pig coronary arteries. The following applies: 0.3 nM endothelin-1. How it is done: Pig coronary arteries were isolated, and a spiral preparation having a width of 1 mm and a length of 10 mm was prepared therefrom. These samples were then placed in a 5 ml Magnus' tube filled with Krebs-Henseleit solution saturated with a gas mixture of 95% O2 and 5% CO2, and a change in the tension was isometrically measured and recorded. […]

The subject of assay [5] is Isolated Pig Coronary Arteries. The assay is described as follows: Effect on Big Endothelin-1-induced Contraction in Isolated Pig Coronary Arteries. How it is done:
Pig coronary arteries were isolated, and a spiral preparation having a width of 1 mm and a length of 10 mm was prepared therefrom. These samples were then placed in a 5 ml Magnus' tube filled with Krebs-Henseleit solution saturated with a gas mixture of 95% O2 and 5% CO2, and a change in the tension was isometrically measured and recorded.
The influence of a representative compound of the present invention (Compound of Example 11) to the increase in the tension produced by 30 nM of big endothelin-1 was examined. The test compound was added to the Magnus' tube 40 minutes prior to the addition of big endothelin-1.
A 100% increase in the tension was defined as that in the case of no addition of the test compound (control) at 2 hours after addition of big endothelin-1, and the comparison with the increase in the tension in the cases where the test compound was added is shown in Table 2.

Structures are written as SMILES. “Also recorded” adds a separate entry of the source.

Regarding `CC(C)C[C@H](NC(CCc1cccc2ccccc12)P(=O)(O)O)C(=O)N[C@@H](Cc1c[nH]c2ccccc12)C(=O)O` (single isomer, unassigned) [Example 2 (Isomer B), N-{N-[3-(1-naphthyl)-1-phosphonopropyl]-L-leucyl}-L-tryptophan], the “inhibition of big endothelin-1-induced contraction (in words)” value in assay [1] (100 nM big endothelin-1, 1-100 μm (so in the source)) was “dose-dependent inhibition”. In assay [1] (Cavia porcellus, 100 nM big endothelin-1, guinea pig bronchia, calculated, read-out: IC50 value, inhibition of big endothelin-1-induced contraction), the IC50 was 16 µM. Further, in assay [1] (Cavia porcellus, 1 μm (so in the source), 100 nM big endothelin-1, at 2 hours, read-out: Contraction (% of control)), the activity at 1 µM came out at 105%. For the same compound, the activity at 10 µM in assay [1] (Cavia porcellus, 10 μm (so in the source), 100 nM big endothelin-1, at 2 hours, read-out: Contraction (% of control)) is 54.9%. Besides, the activity at 100 µM in assay [1] (Cavia porcellus, 100 μm (so in the source), 100 nM big endothelin-1, at 2 hours, read-out: Contraction (% of control)) stood at 32.9%. Further, in assay [1] (compound alone), the “effect of the test compound itself on the tension of bronchial samples” value is recorded as “no effect”.
Compound `CC(C)C[C@H](NP(=O)(O)O[C@@H]1O[C@@H](C)[C@H](O)[C@@H](O)[C@H]1O)C(=O)N[C@@H](Cc1c[nH]c2ccccc12)C(=O)O` [Phosphoramidon, reference compound] registered an inhibition at 10 µM in assay [2] of 64%.
With `CC(C)C[C@H](NC(CCc1ccccc1)P(=O)(O)O)C(=O)N[C@@H](Cc1c[nH]c2ccccc12)C(=O)O` (single isomer, unassigned) [Example 1 (Isomer B), N-[N-(3-phenyl-1-phosphonopropyl)-L-leucyl]-L-tryptophan], in assay [3] (0.3, 1.0 and 3.0 mg/kg into common carotid vein, 5 minutes before 5 nmol/kg big endothelin-1, FIG. 1), the “increase in airway pressure induced by big endothelin-1” value was “remarkably inhibits the increase in the airway pressure; also recorded: suppressed the increase in airway pressure induced by big endothelin-1, in a dose-dependent manner”. The “change in airway pressure on administration of the test compound alone” value in assay [3] (test compound alone) was “no change in the airway pressure”.
In turn, `CC(C)C[C@H](NC(CCc1c[nH]c2ccccc12)P(=O)(O)O)C(=O)N[C@@H](Cc1c[nH]c2ccccc12)C(=O)O` (stereo partly drawn) [Example 6, N-[N-[3-(3-indolyl)-1-phosphonopropyl]-L-leucyl]-L-tryptophan] yielded an inhibition at 10 µM in assay [2] of 80%.
`CC(C)C[C@H](NC(CCc1ccccc1)P(=O)(O)O)C(=O)N[C@@H](Cc1c[nH]c2ccccc12)C(=O)O` (stereo partly drawn) [Example 11, N-[N-(3-phenyl-1-phosphonopropyl)-L-leucyl]-L-tryptophan] came in with an inhibition at 10 µM in assay [2] of 84%. In addition, in assay [4], the “effect on the increase in the tension caused by endothelin-1” value is “no effect”. Further, in assay [5] (30 nM big endothelin-1, 10-100 μM), the “inhibition of big endothelin-1-induced contraction (in words)” value is “dose-dependent inhibition”. In assay [5] (Sus scrofa, 30 nM big endothelin-1, pig coronary arteries, calculated, read-out: IC50 value, inhibition of big endothelin-1-induced contraction), the IC50 is 16 µM. In addition, the activity at 10 µM in assay [5] (Sus scrofa, 10 μM, 30 nM big endothelin-1, at 2 hours, read-out: Contraction (% of control)) was found to be 59.9%. In assay [5] (Sus scrofa, 30 μM, 30 nM big endothelin-1, at 2 hours, read-out: Contraction (% of control)), the activity at 30 µM came out at 35.3%. In addition, the activity at 100 µM in assay [5] (Sus scrofa, 100 μM, 30 nM big endothelin-1, at 2 hours, read-out: Contraction (% of control)) was determined as 2.7%. Also, the “effect of the compound itself on the tension of blood vessel samples” value in assay [5] (compound alone) is “no effect”.
In assay [2], `O=C(O)[C@H](Cc1c[nH]c2ccccc12)NC(=O)[C@H](Cc1ccccc1)NC(CCc1ccccc1)P(=O)(O)O` (single isomer, unassigned) [Example 10 (Isomer B), N-[N-(3-phenyl-1-phosphonopropyl)-L-phenylalanil]-L-tryptophan] had an inhibition at 10 µM of 76%.

What is called IC50 is the point on the concentration scale where inhibition reaches its midpoint. What is called inhibition is the drop in the measured response relative to a control, in per cent.
